Source: ChEMBL document CHEMBL1150184, “CAF-603: a new antifungal carotane sesquiterpene. Isolation and structure elucidation” (1990)
≈ marks a conversion by molar mass, not a printed value.

Key:
Assay type in all cases: functional
Candida tropicalis [1] = experiment: microbe, parasite or virus in culture; settings: IAM 4924, 24 h
Description: Antifungal activity against Candida tropicalis IAM 4924 after 24 hrs in Yeast morphology agar medium by agar dilution method

Candida albicans [2] = experiment: Antifungal activity against Candida albicans MCNH4 after 24 hrs in Sabouraud agar medium by agar dilution method; settings: MCNH4, 24 h
Aspergillus niger [3] = experiment: Antifungal activity against Aspergillus niger NHL after 24 hrs in Sabouraud agar medium by agar dilution method
Candida tropicalis [4] = experiment: microbe, parasite or virus in culture; settings: IAM 4924, 24 h; remark: listed apart in the source
Description: Antifungal activity against Candida tropicalis IAM 4924 after 24 hrs in Sabouraud agar medium by agar dilution method

Rhizopus arrhizus [5] = experiment: microbe, parasite or virus in culture; settings: IAM 6052, 24 h
Description: Antifungal activity against Rhizopus arrhizus IAM 6052 after 24 hrs in Yeast morphology agar medium by agar dilution method

Candida albicans [6] = experiment: microbe, parasite or virus in culture; settings: IAM 4888, 24 h
Description: Antifungal activity against Candida albicans IAM 4888 after 24 hrs in Yeast morphology agar medium by agar dilution method

Candida albicans [7] = experiment: Antifungal activity against Candida albicans MCNH2 after 24 hrs in Yeast morphology agar medium by agar dilution method; settings: MCNH2, 24 h
Candida albicans [8] = experiment: microbe, parasite or virus in culture; settings: NHL 4019, 24 h
Description: Antifungal activity against Candida albicans NHL 4019 after 24 hrs in Sabouraud agar medium by agar dilution method

Aspergillus fumigatus [9] = experiment: Antifungal activity against Aspergillus fumigatus IAM 2400 after 24 hrs in Sabouraud agar medium by agar dilution method; settings: IAM 2400, 24 h
Candida albicans [10] = experiment: Antifungal activity against Candida albicans MCNH1 after 24 hrs in Sabouraud agar medium by agar dilution method; settings: MCNH1, 24 h
Candida albicans [11] = experiment: Antifungal activity against Candida albicans MCNH3 after 24 hrs in Sabouraud agar medium by agar dilution method; settings: MCNH3, 24 h
Nakaseomyces glabratus = experiment: microbe, parasite or virus in culture; settings: OUT 6189, 24 h
Description: Antifungal activity against Torulopsis glabrata OUT 6189 after 24 hrs in Sabouraud agar medium by agar dilution method

Aspergillus fumigatus [12] = experiment: Antifungal activity against Aspergillus fumigatus IAM 2400 after 24 hrs in Yeast morphology agar medium by agar dilution method; settings: IAM 2400, 24 h
Rhizopus arrhizus [13] = experiment: microbe, parasite or virus in culture; settings: IAM 6052, 24 h; remark: listed apart in the source
Description: Antifungal activity against Rhizopus arrhizus IAM 6052 after 24 hrs in Sabouraud agar medium by agar dilution method

[14] = system: Meyerozyma guilliermondii; experiment: Antifungal activity against Candida guilliermondii JTD after 24 hrs in Sabouraud agar medium by agar dilution method
Pichia kudriavzevii [15] = experiment: microbe, parasite or virus in culture; settings: IAM 4801, 24 h
Description: Antifungal activity against Candida krusei IAM 4801 after 24 hrs in Sabouraud agar medium by agar dilution method

Saccharomyces cerevisiae [16] = experiment: microbe, parasite or virus in culture; settings: IAM 4203, 24 h
Description: Antifungal activity against Saccharomyces cerevisiae IAM 4203 after 24 hrs in Sabouraud agar medium by agar dilution method

[17] = system: Meyerozyma guilliermondii; experiment: Antifungal activity against Candida guilliermondii JTD after 24 hrs in Yeast morphology agar medium by agar dilution method
Candida albicans [18] = experiment: Antifungal activity against Candida albicans MCNH2 after 24 hrs in Sabouraud agar medium by agar dilution method; settings: MCNH2, 24 h
Saccharomyces cerevisiae [19] = experiment: microbe, parasite or virus in culture; settings: IAM 4203, 24 h; remark: listed apart in the source
Description: Antifungal activity against Saccharomyces cerevisiae IAM 4203 after 24 hrs in Yeast morphology agar medium by agar dilution method

Candida albicans [20] = experiment: Antifungal activity against Candida albicans MCNH3 after 24 hrs in Yeast morphology agar medium by agar dilution method; settings: MCNH3, 24 h
Saccharomyces cerevisiae [21] = experiment: Antifungal activity against Saccharomyces cerevisiae IAM 4500 after 24 hrs in Sabouraud agar medium by agar dilution method; settings: IAM 4500, 24 h
Aspergillus niger [22] = experiment: Antifungal activity against Aspergillus niger NHL after 24 hrs in Yeast morphology agar medium by agar dilution method
Candida albicans [23] = experiment: microbe, parasite or virus in culture; settings: IAM 4888, 24 h; remark: listed apart in the source
Description: Antifungal activity against Candida albicans IAM 4888 after 24 hrs in Sabouraud agar medium by agar dilution method

Candida albicans [24] = experiment: Antifungal activity against Candida albicans MCNH1 after 24 hrs in Yeast morphology agar medium by agar dilution method; settings: MCNH1, 24 h
Pichia kudriavzevii [25] = experiment: microbe, parasite or virus in culture; settings: IAM 4801, 24 h; remark: listed apart in the source
Description: Antifungal activity against Candida krusei IAM 4801 after 24 hrs in Yeast morphology agar medium by agar dilution method

Candida albicans [26] = experiment: Antifungal activity against Candida albicans MCNH4 after 24 hrs in Yeast morphology agar medium by agar dilution method; settings: MCNH4, 24 h
Saccharomyces cerevisiae [27] = experiment: Antifungal activity against Saccharomyces cerevisiae IAM 4500 after 24 hrs in Yeast morphology agar medium by agar dilution method; settings: IAM 4500, 24 h
Candida albicans [28] = experiment: microbe, parasite or virus in culture; settings: NHL 4019, 24 h; remark: listed apart in the source
Description: Antifungal activity against Candida albicans NHL 4019 after 24 hrs in Yeast morphology agar medium by agar dilution method

SMILES | MIC (Candida tropicalis [1]) [µg/mL] | MIC (Candida albicans [2]) [µg/mL] | MIC (Aspergillus niger [3]) [µg/mL] | MIC (Candida tropicalis [4]) [µg/mL] | MIC (Rhizopus arrhizus [5]) [µg/mL] | MIC (Candida albicans [6]) [µg/mL] | MIC (Candida albicans [7]) [µg/mL] | MIC (Candida albicans [8]) [µg/mL] | MIC (Aspergillus fumigatus [9]) [µg/mL] | MIC (Candida albicans [10]) [µg/mL] | MIC (Candida albicans [11]) [µg/mL] | MIC (Nakaseomyces glabratus) [µg/mL] | MIC (Aspergillus fumigatus [12]) [µg/mL] | MIC (Rhizopus arrhizus [13]) [µg/mL] | MIC [14] [µg/mL] | MIC (Pichia kudriavzevii [15]) [µg/mL] | MIC (Saccharomyces cerevisiae [16]) [µg/mL] | MIC [17] [µg/mL] | MIC (Candida albicans [18]) [µg/mL] | MIC (Saccharomyces cerevisiae [19]) [µg/mL] | further results
CC1=CC[C@@]2(C)C[C@H](O)[C@@](O)(C(C)C)[C@@H]2CC1 | 50 (≈ 210 µM) | 6.25 (≈ 26.2 µM) | 100 (≈ 420 µM) | > 100 | > 100 | 1.56 (≈ 6.54 µM) | 1.56 (≈ 6.54 µM) | 0.8 (≈ 3.36 µM) | 25 (≈ 105 µM) | 6.25 (≈ 26.2 µM) | 12.5 (≈ 52.4 µM) | 50 (≈ 210 µM) | 12.5 (≈ 52.4 µM) | > 100 | > 100 | 25 (≈ 105 µM) | 3.13 (≈ 13.1 µM) | > 100 | 3.13 (≈ 13.1 µM) | 1.56 (≈ 6.54 µM) | MIC (Candida albicans [20]): 3.13 µg/mL (≈ 13.1 µM); MIC (Saccharomyces cerevisiae [21]): > 100 µg/mL; MIC (Aspergillus niger [22]): 12.5 µg/mL (≈ 52.4 µM); MIC (Candida albicans [23]): 12.5 µg/mL (≈ 52.4 µM); MIC (Candida albicans [24]): 3.13 µg/mL (≈ 13.1 µM); MIC (Pichia kudriavzevii [25]): 25 µg/mL (≈ 105 µM); MIC (Candida albicans [26]): 1.56 µg/mL (≈ 6.54 µM); MIC (Saccharomyces cerevisiae [27]): > 100 µg/mL; MIC (Candida albicans [28]): 0.4 µg/mL (≈ 1.68 µM)
Clc1ccc(COC(Cn2ccnc2)c2ccc(Cl)cc2Cl)c(Cl)c1.O=[N+]([O-])O (stereo not drawn) [MICONAZOLE NITRATE] | 6.25 | 6.25 | 3.13 | 12.5 | 0.2 | 3.13 | 12.5 | 0.05 | 0.8 | 12.5 | 3.13 | 6.25 | 1.56 | 0.4 | 6.25 | 0.8 | 6.25 | 3.13 | 6.25 | 1.56 | MIC (Candida albicans [20]): 12.5 µg/mL; MIC (Saccharomyces cerevisiae [21]): 3.13 µg/mL; MIC (Aspergillus niger [22]): 3.13 µg/mL; MIC (Candida albicans [23]): 6.25 µg/mL; MIC (Candida albicans [24]): 12.5 µg/mL; MIC (Pichia kudriavzevii [25]): 0.8 µg/mL; MIC (Candida albicans [26]): 6.25 µg/mL; MIC (Saccharomyces cerevisiae [27]): 12.5 µg/mL; MIC (Candida albicans [28]): < 0.05 µg/mL
